Assay results reported in paper PMC10072319 (Bioorganic & medicinal chemistry letters, 2023).

How the values were obtained:
T. b. brucei Lister 427 = type: cell-based, Trypanosoma brucei brucei; details: for activity against T. b. brucei, in words: first pass screen at 4 μM
HEK293 cells = assay: Resazurin cell viability; details: read-out: HEK293 CC50, 48 h, mean ± SD
T. b. brucei parasites = assay: Time-kill experiment, parasites quantified by hemocytometer cell counting; type: cell-based, Trypanosoma brucei brucei; details: for time required to kill the parasites: all concentrations tested (46: 1, 2 and 4 μM; pentamidine: 0.5, 1 and 2 μM)
[1] = tested on: T. b. brucei trypanosomes; assay: Washout experiment; type: cell-based, Trypanosoma brucei brucei; details: 1, 2 and 4 μM for 6, 4 and 2 h, washed three times, monitored a further 48 h

`COc1cc(/C=C/C(=O)/C=C/c2cc(OC)c(OC)c(OC)c2)cc(OC)c1OC` [Compound 13] was tested, and the “activity against T. b. brucei, in words” value (T. b. brucei Lister 427) was “sub-micromolar activity”.

`CN(C)c1ccc(/C=C/C(=O)/C=C/c2ccccc2)cc1` [Compound 40] was tested, and the “activity against T. b. brucei, in words” value (T. b. brucei Lister 427) was “no activity”.

In the case of `COc1ccc(/C=C/C(=O)CC(=O)/C=C/c2ccc(OC)c(OC)c2)cc1OC` [Compound 8], the “activity against T. b. brucei, in words” value (T. b. brucei Lister 427) is reported as “inactive”.

With `O=C(/C=C/c1ccc(C(F)(F)F)cc1)CC(=O)/C=C/c1ccc(C(F)(F)F)cc1` [Compound 11] the “activity against T. b. brucei, in words” value (T. b. brucei Lister 427) was “inactive”.

For `COc1ccc(/C=C/C(=O)/C=C/c2ccc(OC)cc2)cc1` [Compound 29], the “activity against T. b. brucei, in words” value (T. b. brucei Lister 427) was “inactive”.

For `O=C(/C=C/c1ccccc1Cl)/C=C/c1ccccc1Cl` [Compound 19], the “selectivity index (SI = HEK293 CC50/T. b. brucei EC50)” value (T. b. brucei Lister 427) was “above 10” and the “activity against T. b. brucei, in words” value (T. b. brucei Lister 427) was “sub-micromolar activity”.

With `O=C(/C=C/c1ccc(Cl)c(Cl)c1)CC(=O)/C=C/c1ccc(Cl)c(Cl)c1` [Compound 12] the “activity against T. b. brucei, in words” value (T. b. brucei Lister 427) was “inactive”.

`O=C(/C=C/c1ccccc1)CC(=O)/C=C/c1ccccc1` [Compound 5] was tested, and the “activity against T. b. brucei, in words” value (T. b. brucei Lister 427) was “no measurable activity”.

With `COc1ccc(/C=C/C(=O)/C=C/c2ccc(OC)c(OC)c2)cc1OC` [Compound 16] the “selectivity index (SI = HEK293 CC50/T. b. brucei EC50)” value (T. b. brucei Lister 427) was “above 10” and the “activity against T. b. brucei, in words” value (T. b. brucei Lister 427) was “sub-micromolar activity”.

For `O=C(/C=C/c1ccccc1)/C=C/c1ccccc1` [Compound 3, dibenzylideneacetone], the EC50 (T. b. brucei Lister 427; read-out: T. b. brucei EC50, bloodstream forms, Lister 427, SYBR green, 72 h, mean ± SD) was 0.8 ± 0.2 µM and the CC50 (HEK293 cells) was 8.33 ± 0.48 µM.

For `COc1cc(/C=C2\CCC/C(=C\c3cc(OC)cc(OC)c3)C2=O)cc(OC)c1` [Compound 34], the “activity against T. b. brucei, in words” value (T. b. brucei Lister 427) was “inactive”.

With `COc1cccc(/C=C/C(=O)/C=C/c2cccc(OC)c2)c1` [Compound 28] the “activity against T. b. brucei, in words” value (T. b. brucei Lister 427) was “inactive”.

With `COc1ccc(/C=C/C(=O)/C=C/c2ccccc2)cc1` [Compound 35] the “activity against T. b. brucei, in words” value (T. b. brucei Lister 427) was “no activity”.

`O=C(/C=C/c1ccccc1)/C=C/c1cccc([N+](=O)[O-])c1` [Compound 46] was tested, and the “time required to kill the parasites” value (T. b. brucei parasites) was “less than 24 h”, the “time required to kill the parasite” value (T. b. brucei parasites; at 2 and 4 μM) was “less than 6 h” and the “trypanocidal vs trypanostatic activity after washout” value [1] was “trypanocidal rather than trypanostatic”.

In the case of `COc1cccc(/C=C/C(=O)CC(=O)/C=C/c2cccc(OC)c2)c1` [Compound 7], the “activity against T. b. brucei, in words” value (T. b. brucei Lister 427) is reported as “inactive”.

`N=C(N)c1ccc(OCCCCCOc2ccc(C(=N)N)cc2)cc1` [Pentamidine, reference compound] was tested, and the “time required to kill the parasites” value (T. b. brucei parasites) was over 30 h.
